Measured values reported in PMC8237267 (Journal of Medicinal Chemistry, 2021).
“Also recorded” adds a separate entry of the source.

Key:
HDAC8 = molecular target: T1, HDAC8 (Homo sapiens, UniProt Q9BY41); assay: HDAC EMSA activity assay (Nanosyn); assay type: biochemical; conditions: EMSA (Nanosyn); read-out: IC50 HDAC8
T1 construct: The full-length human HDACs were recombinantly expressed and purified from SF9 insect cells; host or cells: SF9 insect cells
T1 sequence (Q9BY41 1-377): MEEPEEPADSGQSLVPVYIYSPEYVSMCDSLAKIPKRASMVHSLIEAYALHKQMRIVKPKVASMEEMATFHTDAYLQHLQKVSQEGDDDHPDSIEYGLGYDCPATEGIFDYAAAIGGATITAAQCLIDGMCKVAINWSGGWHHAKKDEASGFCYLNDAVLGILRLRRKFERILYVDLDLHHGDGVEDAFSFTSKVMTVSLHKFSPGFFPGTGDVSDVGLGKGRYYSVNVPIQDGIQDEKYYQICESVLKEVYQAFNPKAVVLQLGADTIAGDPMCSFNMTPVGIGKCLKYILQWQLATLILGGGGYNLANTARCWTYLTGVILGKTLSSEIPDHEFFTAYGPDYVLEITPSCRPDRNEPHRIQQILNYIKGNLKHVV

CD-1 mice = assay: Maximum tolerated dose / 5 day toxicity study; assay type: in vivo; conditions: 20 mg/kg P.O., daily for 5 days, listed as KT-531, 20 mg/kg
Description: Acute toxicity of the lead inhibitors was studied using 4–12 week old male CD-1 mice (Charles River). A concentration of 20 mg/kg of inhibitor via oral gavage was administered to mice (n = 5) over 5 days. The vehicle consisted of 10% DMSO, 5% Cremophor EL, and 85% saline. Mice were monitored daily for toxicity effects including excessive changes in weight and hair as well as changes to posture and inactivity. All mouse studies were approved by the Local Animal Care Committee at the University of Toronto and Office of Laboratory Animal Welfare (OLAW). The mice were housed in Tecniplast Blueline ventilated cages with environmental enrichment and fed a Teklad 2019 diet supplemented with municipal water.

MV4-11 cells = assay: FACS apoptosis detection assay (Annexin V/PI); assay type: cell-based; conditions: MV4-11, 18 h, listed as KT-531
Description: MV4-11 cells were prepared, dosed, and washed with cold 1× PBS. The resulting cell pellets were resuspended in 1× Binding Buffer (1 × 10^6 cell/mL) from the FITC Annexin V Apoptosis Detection Kit I (BD Pharmingen). Subsequently, the dyes annexin V (5 μL) and propidium iodide (PI, 5 μL) were added to 2.5 × 10^5 cells (250 μL). The suspension was thoroughly mixed and incubated in the dark for 15 min. Following the addition of 250 μL of 1× binding buffer, the cells were analyzed by flow cytometry within 1 h using the Cytoflex S system (Beckman Coulter).

HDAC6 = molecular target: T2, HDAC6 (Homo sapiens, UniProt Q9UBN7); assay: Time-dependent IC50 assay with preincubation (0-6 h); assay type: biochemical; conditions: 6 h time-dependent assay
T2 sequence (Q9UBN7 1-1215): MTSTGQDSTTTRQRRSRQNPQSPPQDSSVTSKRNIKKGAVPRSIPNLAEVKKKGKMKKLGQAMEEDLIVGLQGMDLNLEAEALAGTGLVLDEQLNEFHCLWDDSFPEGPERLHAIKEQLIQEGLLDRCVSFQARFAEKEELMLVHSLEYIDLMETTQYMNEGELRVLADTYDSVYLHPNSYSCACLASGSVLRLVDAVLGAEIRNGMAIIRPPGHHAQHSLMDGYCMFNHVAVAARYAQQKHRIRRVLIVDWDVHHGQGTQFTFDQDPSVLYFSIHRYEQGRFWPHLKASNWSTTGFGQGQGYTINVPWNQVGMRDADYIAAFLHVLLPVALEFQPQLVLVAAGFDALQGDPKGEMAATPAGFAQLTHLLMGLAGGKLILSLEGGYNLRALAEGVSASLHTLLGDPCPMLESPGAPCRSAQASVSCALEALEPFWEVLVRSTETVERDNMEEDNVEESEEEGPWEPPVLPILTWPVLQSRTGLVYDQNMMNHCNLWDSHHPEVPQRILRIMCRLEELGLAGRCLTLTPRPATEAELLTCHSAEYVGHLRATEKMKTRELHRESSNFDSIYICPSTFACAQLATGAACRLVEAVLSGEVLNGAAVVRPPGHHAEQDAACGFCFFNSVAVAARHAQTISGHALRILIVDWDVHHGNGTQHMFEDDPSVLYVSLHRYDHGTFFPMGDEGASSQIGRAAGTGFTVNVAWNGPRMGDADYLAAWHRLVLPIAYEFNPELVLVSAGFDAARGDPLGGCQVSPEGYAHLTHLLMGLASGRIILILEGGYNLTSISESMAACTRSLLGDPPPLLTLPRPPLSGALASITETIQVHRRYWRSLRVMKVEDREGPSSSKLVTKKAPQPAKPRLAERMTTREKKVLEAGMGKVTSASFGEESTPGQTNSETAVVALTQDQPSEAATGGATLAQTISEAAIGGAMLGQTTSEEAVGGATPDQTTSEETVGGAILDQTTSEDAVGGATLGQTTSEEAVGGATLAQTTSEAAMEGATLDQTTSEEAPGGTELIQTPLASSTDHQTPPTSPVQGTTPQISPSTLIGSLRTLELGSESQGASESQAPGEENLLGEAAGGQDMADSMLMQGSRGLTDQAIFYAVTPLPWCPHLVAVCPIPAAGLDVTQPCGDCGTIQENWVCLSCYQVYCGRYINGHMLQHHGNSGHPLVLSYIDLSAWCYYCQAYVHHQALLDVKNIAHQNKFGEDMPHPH
Description: The binding kinetics profile of KT-531 was also investigated by determining the association (kon)/dissociation (koff) rates as well as residence time parameters. The in vitro residence time (1/kobs) for the KT-531–HDAC6 complex was determined to be 23.18 min, as compared to 10.72 min for 1.

[1] = Permeability by lipid-PAMPA; assay type: in vitro ADME; conditions: lecithin/dodecane, PBS pH 7.4, 16 h
Description: A 1.8% solution (w/v) of lecithin in dodecane was added to each acceptor plate well (top), followed by application of the artificial membrane and addition of 300 μL of PBS (pH 7.4) solution to each well of the acceptor plate. Compounds were added to the donor plate and incubated at 25 °C, 60 rpm for 16 h. After incubation, aliquots of 50 μL from each acceptor well and donor plate were transferred into a 96-well plate, vortexed at 750 rpm for 100 s and centrifuged at 3220g for 20 min. Compound concentrations and effective permeability (Pe) were determined by LC/MS/MS.

HDAC2 = molecular target: T3, HDAC2 (Homo sapiens, UniProt Q92769); assay: HDAC EMSA activity assay (Nanosyn); assay type: biochemical
T3 construct: The full-length human HDACs were recombinantly expressed and purified from SF9 insect cells; host or cells: SF9 insect cells
T3 sequence (Q92769 whole entry): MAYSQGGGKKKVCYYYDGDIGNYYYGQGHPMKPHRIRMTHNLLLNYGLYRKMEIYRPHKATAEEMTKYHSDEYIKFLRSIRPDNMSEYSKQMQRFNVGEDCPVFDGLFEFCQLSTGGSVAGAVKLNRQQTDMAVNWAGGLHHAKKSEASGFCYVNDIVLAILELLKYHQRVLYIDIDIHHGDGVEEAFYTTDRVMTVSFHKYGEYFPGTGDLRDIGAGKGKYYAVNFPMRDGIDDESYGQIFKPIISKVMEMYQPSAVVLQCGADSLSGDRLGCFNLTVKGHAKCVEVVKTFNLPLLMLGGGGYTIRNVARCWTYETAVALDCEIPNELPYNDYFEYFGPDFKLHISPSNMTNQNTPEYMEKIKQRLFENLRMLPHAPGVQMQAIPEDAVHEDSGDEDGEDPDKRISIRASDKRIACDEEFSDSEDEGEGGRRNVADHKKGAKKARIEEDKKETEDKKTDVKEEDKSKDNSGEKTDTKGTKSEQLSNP

## O=C(NO)c1ccc(CN(C2CC2)S(=O)(=O)c2cc(F)c(F)c(F)c2F)cc1 [Compound 14, 4-(((N-Cyclopropyl-2,3,4,5-tetrafluorophenyl)sulfonamido)methyl)-N-hydroxybenzamide]
HDAC8
  IC50: 334 nM
CD-1 mice
  in vivo toxicity: no visible signs of toxicity or weight loss; also recorded: no observable toxicity in vivo
MV4-11 cells; 0.5 μM
  Early Apoptosis: 15%
MV4-11 cells; 1 μM
  Late Apoptosis: 22%
MV4-11 cells; 2 μM
  Healthy (nonapoptotic): 8%
HDAC6
  reversibility of binding (IC50 over preincubation time): unchanged IC50 values
[1]; listed as 14 (KT-531)
  PAMPA -Log Pe: 5.44 ± 0.06
[1]; listed as KT-531
  PAMPA -Log Pe: 5.44
HDAC2
  IC50: > 1000 nM
